The values below are quoted from earlier work in publication PMC8513935.

Data set [1] in a line: log P octanol/water from commercial databases, averaged (the ESI). The note with it: Octanol (wet), 25 C.
Data set [2] can be described thus: experimental, compiled by the authors from the literature (the ESI cites the sources).
A short description of data set [3]: derived by the authors as gas->solvent minus gas->water (a hypothetical dry solvent; the ESI), not a two-phase measurement.

Take `COC`: the log K of transfer, water to solvent in data set [1] was 0.0999 log10 K; in data set [3] (2-Methylpropan-1-ol, 25 C), 0.14 log10 K; in data set [3] (2-Methylpropan-2-ol, 25 C) it was 0.25 log10 K; in data set [3] (3-Methylbutan-1-ol, 25 C) it was 0.057 log10 K; in data set [3] (Butan-1-ol, 25 C), 0.0999 log10 K; in data set [3] (Butan-2-ol, 25 C), 0.14 log10 K. For the same molecule, the log K of transfer, water to solvent is 0.2 log10 K in data set [3] (Chlorobenzene, 25 C); -0.115 log10 K in data set [3] (Hexadecane, 25 C); -0.087 log10 K in data set [3] (Hexane, 25 C); 0.29 log10 K in data set [3] (Methanol, 25 C); -0.03 log10 K in data set [3] (Octan-1-ol(dry), 25 C); 0.05 log10 K in data set [3] (Pentan-1-ol, 25 C). For the same molecule, the log K of transfer, water to solvent in data set [3] (Propan-2-ol, 25 C) was 0.16 log10 K. For the same molecule, the log K of transfer, gas to solvent was 1.54 log10 K in data set [2] (2-Methylpropan-1-ol, 25 C); 1.65 log10 K in data set [2] (2-Methylpropan-2-ol, 25 C); 1.46 log10 K in data set [2] (3-Methylbutan-1-ol, 25 C); 1.5 log10 K in data set [2] (Butan-1-ol, 25 C); 1.54 log10 K in data set [2] (Butan-2-ol, 25 C); 1.6 log10 K in data set [2] (Chlorobenzene, 25 C). Besides, the log K of transfer, gas to solvent was 1.28 log10 K in data set [2] (Hexadecane, 25 C); 1.31 log10 K in data set [2] (Hexane, 25 C); 1.69 log10 K in data set [2] (Methanol, 25 C); 1.37 log10 K in data set [2] (Octan-1-ol, 25 C); 1.45 log10 K in data set [2] (Pentan-1-ol, 25 C); 1.56 log10 K in data set [2] (Propan-2-ol, 25 C). In addition, in data set [2] (Water, 25 C), the log K of transfer, gas to solvent was 1.4 log10 K.
On to `CCCCF`, for which the log K of transfer, water to solvent in data set [1] was 2.29 log10 K; in data set [3] (Hexadecane, 25 C) it was 2.06 log10 K. Also, the log K of transfer, gas to solvent is 1.77 log10 K in data set [2] (Hexadecane, 25 C) and -0.29 log10 K in data set [2] (Water, 25 C).
As to `CCCCN`, the log K of transfer, water to solvent in data set [1] is 0.97 log10 K; in data set [3] (1,2-Dichloroethane, 25 C), 0.18 log10 K; in data set [3] (Benzene, 25 C), 0.06 log10 K; in data set [3] (CCl4, 25 C), 0.04 log10 K; in data set [3] (Chlorobenzene, 25 C), -0.05 log10 K; in data set [3] (Chloroform, 25 C) it was 0.75 log10 K. Further, the log K of transfer, water to solvent in data set [3] (Cyclohexane, 25 C) was -0.488 log10 K; in data set [3] (Di-n-butyl ether, 25 C) it was -0.43 log10 K; in data set [3] (Hexadecane, 25 C), -0.492 log10 K; in data set [3] (Octan-1-ol(dry), 25 C), 0.5 log10 K; in data set [3] (Toluene, 25 C), 0.14 log10 K. Further, the log K of transfer, gas to solvent in data set [2] (1,2-Dichloroethane, 25 C) was 3.29 log10 K; in data set [2] (Benzene, 25 C), 3.17 log10 K; in data set [2] (CCl4, 25 C) it was 3.15 log10 K; in data set [2] (Chlorobenzene, 25 C) it was 3.06 log10 K; in data set [2] (Chloroform, 25 C), 3.86 log10 K; in data set [2] (Cyclohexane, 25 C), 2.62 log10 K. For the same molecule, the log K of transfer, gas to solvent is 2.68 log10 K in data set [2] (Di-n-butyl ether, 25 C); 2.62 log10 K in data set [2] (Hexadecane, 25 C); 3.61 log10 K in data set [2] (Octan-1-ol, 25 C); 3.25 log10 K in data set [2] (Toluene, 25 C); 3.11 log10 K in data set [2] (Water, 25 C).
With `CCC(C)O` (stereo not shown), the log K of transfer, water to solvent in data set [1] is 0.65 log10 K; in data set [3] (2-Methylpropan-2-ol, 25 C), 0.77 log10 K; in data set [3] (Butan-1-ol, 25 C) it was 0.64 log10 K; in data set [3] (Butan-2-ol, 25 C), 0.7 log10 K; in data set [3] (Butanone, 25 C), 0.41 log10 K; in data set [3] (CCl4, 25 C), -0.54 log10 K. For the same molecule, the log K of transfer, water to solvent in data set [3] (Chlorobenzene, 25 C) was -0.27 log10 K; in data set [3] (Chloroform, 25 C), 0.3 log10 K; in data set [3] (Decan-1-ol, 25 C), 0.506 log10 K; in data set [3] (Hexadecane, 25 C) it was -1.05 log10 K; in data set [3] (Hexane, 25 C) it was -0.783 log10 K; in data set [3] (Octan-1-ol(dry), 25 C), 0.41 log10 K. Moreover, the log K of transfer, gas to solvent is 4.16 log10 K in data set [2] (2-Methylpropan-2-ol, 25 C); 4.03 log10 K in data set [2] (Butan-1-ol, 25 C); 4.09 log10 K in data set [2] (Butan-2-ol, 25 C); 3.8 log10 K in data set [2] (Butanone, 25 C); 2.85 log10 K in data set [2] (CCl4, 25 C); 3.12 log10 K in data set [2] (Chlorobenzene, 25 C). Moreover, the log K of transfer, gas to solvent in data set [2] (Chloroform, 25 C) is 3.69 log10 K; in data set [2] (Decan-1-ol, 25 C), 3.89 log10 K; in data set [2] (Hexadecane, 25 C), 2.34 log10 K; in data set [2] (Hexane, 25 C), 2.61 log10 K; in data set [2] (Octan-1-ol, 25 C) it was 3.8 log10 K; in data set [2] (Water, 25 C) it was 3.39 log10 K.
